Drawing on EP3421483A1, “NOVEL STEROIDAL 17-BETA HETEROARYL COMPOUNDS AS INHIBITORS OF AKR1C3” (Bayer Pharma Aktiengesellschaft, priority 2017, dated 2019), this text covers IC50 for twelve molecules.

Each structure is given as a SMILES string. Several values for one entry are separate records, joined by “and”; a condition that tells them apart may be missing. Equal values may be shown once. Read-outs that look alike come from different tables or passages of the source.

The test deals with T1, recombinant human AKR1C3 (aldo-keto reductase family 1 member C3) (Homo sapiens, UniProt P42330).
T1 construct: GST (cleaved yes); made in house; host or cells: E. coli
T1 sequence (P42330 1-323): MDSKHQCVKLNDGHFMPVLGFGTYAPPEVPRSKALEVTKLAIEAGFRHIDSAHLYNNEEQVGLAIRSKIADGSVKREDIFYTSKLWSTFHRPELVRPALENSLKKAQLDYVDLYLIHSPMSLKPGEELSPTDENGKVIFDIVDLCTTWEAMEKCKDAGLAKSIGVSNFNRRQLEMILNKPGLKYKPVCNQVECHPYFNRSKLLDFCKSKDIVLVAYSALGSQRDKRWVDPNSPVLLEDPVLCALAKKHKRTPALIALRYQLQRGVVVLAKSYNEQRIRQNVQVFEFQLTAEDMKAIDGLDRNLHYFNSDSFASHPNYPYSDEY
As to the kind of experiment: AKR1C3 enzyme inhibition assay (fluorescence; NADPH-dependent reduction of coumberone to coumberol). It is filed as biochemical. As for the experimental part: The AKR1C3-inhibitory action of the substances of this invention was measured in the AKR1C3 assay described in the paragraphs which follow. Essentially, the enzyme activity is measured by quantifying the coumberol formed from coumberone ([…]., and […]. AM. CHEM. SOC. 130, 14123-14128 (2008) […]., Bauman, D.R., Penning, T.M., and […]., Proc. Natl. Acad. Sci. USA 103, 13304 - 13309 (2006)). In this assay, the increase in the highly fluorescent coumberol can be determined by NADPH (nicotinamide adenine dinucleotide phosphate)-dependent reduction of the nonfluorescent coumberone by AKR1C3. […] NM_003739). This was expressed as the GST (glutathione S-transferase) fusion protein in E. coli and purified by means of glutathione-Sepharose affinity chromatography. The GST was removed by thrombin digestion with subsequent size exclusion chromatography (Dufort, I., Rheault, P., Huang, XF., Soucy, P., and Luu-The, V., Endocrinology 140, 568-574 (1999)). […] The concentration of the AKR1C3 was matched to the respective activity of the enzyme preparation and set such that the assay worked within the linear range. Typical concentrations were in the region of 1 nM. The reaction was stopped by adding 5 μl of a stop solution consisting of the inhibitor EM-1404 [F. Labrie et al. US Patent 6,541,463, 2003] (2 μM → final concentration in assay volume […] is 1 μM). Subsequently, the fluorescence of coumberol was measured at 520 nm (excitation at 380 nm) with a suitable measuring instrument (Pherastar from BMG Labtechnologies). […] As described, the pharmacological substances claimed were tested for their inhibitory effect on the AKR1C3 enzyme (see Table 3). […] Table 3: Inhibition of AKR1C3 by the inventive compounds (for some of the compounds, the values for two experimental determinations are reported)

The mark [1] stands for this setting: 10 µM NADPH, 0.3 µM coumberone, 15 min preincubation, 90 min at 22°C, pH 7, 4-parameter fit, for some compounds two experimental determinations are given, read-out: AKR1C3 enzyme inhibition IC50.

For the molecule `CN(CC(=O)O)C(=O)c1ccc2c(c1)CC[C@@H]1[C@@H]2CC[C@]2(C)[C@@H](c3cncc(C(F)(F)F)c3)CC[C@@H]12` [Example 8, N-methyl-N-[[(17beta)-17-[5-(trifluoromethyl)pyridin-3-yl]estra-1,3,5(10)-trien-3-yl]carbonyl}glycine], under setting [1], the IC50 was 48.5 nM and 76.2 nM. As to `C[C@]12CC[C@@H]3c4ccc(C(=O)NCCC(=O)O)cc4CC[C@H]3[C@@H]1CC[C@@H]2c1cncc(C(F)(F)F)c1` [Example 9, N-{[(17beta)-17-[5-(trifluoromethyl)pyridin-3-yl]estra-1,3,5(10)-trien-3-yl]carbonyl}-beta-alanine], the IC50 under setting [1] was 16.9 nM and 26 nM. On the same count and under the same terms, the figure for `C[C@]12CC[C@@H]3c4ccc(C(=O)NCC(=O)O)cc4CC[C@H]3[C@@H]1CC[C@@H]2c1cncc(F)c1` [Example 2, N-[[(17beta)-17-(5-fluoropyridin-3-yl)estra-1,3,5(10)-trien-3-yl]carbonyl}glycine] is 26.4 nM and 28.9 nM. `C[C@]12CC[C@@H]3c4ccc(C(=O)NCCCC(=O)O)cc4CC[C@H]3[C@@H]1CC[C@@H]2c1cncc(F)c1` [Example 4, 4-({[(17beta)-17-(5-fluoropyridin-3-yl)estra-1,3,5(10)-trien-3-yl]carbonyl}amino)butanoic acid]: the IC50 (read-out: AKR1C3 enzyme inhibition IC50, 10 µM NADPH, 0.3 µM coumberone, 15 min preincubation, 90 min at 22°C, pH 7, 4-parameter fit, for some compounds two experimental determinations are given) was 7.79 nM and 6.76 nM. For the molecule `CN(CCC(=O)O)C(=O)c1ccc2c(c1)CC[C@H]1[C@@H]3[C@H](O)C[C@H](c4cncc(F)c4)[C@@]3(C)CC[C@H]21` [Example 11, N-{[(15beta,17beta)-17-(5-fluoropyridin-3-yl)-15-hydroxyestra-1,3,5(10)-trien-3-yl]carbonyl}-N-methyl-beta-alanine], the IC50 under setting [1] worked out at 22.4 nM.

For `CN(CCC(=O)O)C(=O)c1ccc2c(c1)CC[C@@H]1[C@@H]2CC[C@]2(C)[C@@H](c3cncc(C(F)(F)F)c3)CC[C@@H]12` [Example 7, N-methyl-N-{[(17beta)-17-[5-(trifluoromethyl)pyridin-3-yl]estra-1,3,5(10)-trien-3-yl]carbonyl}-beta-alanine], the IC50 under setting [1] is 35 nM and 44.1 nM. `CC(C)(CNC(=O)c1ccc2c(c1)CC[C@@H]1[C@@H]2CC[C@]2(C)[C@@H](c3cncc(F)c3)CC[C@@H]12)C(=O)O` [Example 5, 3-([[(17beta)-17-(5-fluoropyridin-3-yl)estra-1,3,5(10)-trien-3-yl]carbonyl}amino)-2,2-dimethylpropanoic acid]: the IC50 was 13.8 nM and 13.1 nM. `CN(CCC(=O)O)C(=O)c1ccc2c(c1)CC[C@@H]1[C@@H]2CC[C@]2(C)[C@@H](c3cncnc3)CC[C@@H]12` [Example 10, N-methyl-N-{[(17beta)-17-(pyrimidin-5-yl)estra-1,3,5(10)-trien-3-yl]carbonyl}-beta-alanine]: the IC50 under setting [1] is 271 nM and 282 nM. The same measure, in the same setting: the figure for `C[C@]12CC[C@@H]3c4ccc(C(=O)NCCC(=O)O)cc4CC[C@H]3[C@@H]1CC[C@@H]2c1cncc(F)c1` [Example 3, N-{[(17beta)-17-(5-fluoropyridin-3-yl)estra-1,3,5(10)-trien-3-yl]carbonyl}-beta-alanine] is 5.47 nM and 9.35 nM. Regarding `CN(CCC(=O)O)C(=O)c1ccc2c(c1)CC[C@@H]1[C@@H]2CC[C@]2(C)[C@@H](c3cncc(F)c3)CC[C@@H]12` [Example 1, N-{[(17beta)-17-(5-fluoropyridin-3-yl)estra-1,3,5(10)-trien-3-yl]carbonyl}-N-methyl-beta-alanine], the IC50 under setting [1] is 19.2 nM and 23.7 nM. As for `CN(CCC(=O)O)C(=O)c1ccc2c(c1)CC[C@H]1[C@@H]3[C@@H](O)C[C@H](c4cncc(F)c4)[C@@]3(C)CC[C@H]21` [Example 12, N-{[(15alpha,17beta)-17-(5-fluoropyridin-3-yl)-15-hydroxyestra-1,3,5(10)-trien-3-yl]carbonyl}-N-methyl-beta-alanine], the IC50 under setting [1] was 188 nM. Still for that read-out and setting: the figure for `COc1cncc([C@H]2CC[C@H]3[C@@H]4CCc5cc(C(=O)N(C)CCC(=O)O)ccc5[C@H]4CC[C@]23C)c1` [Example 6, N-{[(17beta)-17-(5-methoxypyridin-3-yl)estra-1,3,5(10)-trien-3-yl]carbonyl}-N-methyl-beta-alanine] is 67.6 nM and 82.1 nM.

For orientation: IC50 means the midpoint of a concentration-inhibition curve.
